Experimental data taken from article PMC8911181, “A Novel CDK4/6 and PARP Dual Inhibitor ZC-22 Effectively Suppresses Tumor Growth and Improves the Response to Cisplatin Treatment in Breast and Ovarian Cancer” (International Journal of Molecular Sciences, 2022).

Test system: MDA-MB-231 xenograft tumors
Experiment: Breast cancer xenograft mouse model, tumor growth
Type: in vivo, mice
Description: Six-week-old female athymic nude mice (Homozygous) were purchase from Vital River Laboratories (Beijing, China) and maintained under the guidelines for laboratory animals of Nankai university (NKU). Mice were injected subcutaneously with 2 × 10^6 MDA-MB-231 or 8 × 10^6 OVCAR5 cells. When tumors were 50–100 mm^3 in size, the mice were randomly grouped and treated intraperitoneal (i.p.) with 50 mg/kg of Olaparib, 50 mg/kg of LY2835219, 50 mg/kg of ZC-22, or 1.5 mg/kg of cisplatin alone or in combinations or with the vehicle (PBS containing 10% DMSO and 10% 2-hydroxy-propyl-β-cyclodextrin) every 2 days. Tumor volume was measured every 3–4 days, which was calculated as Length × Width^2/2. At the end of the study, tumor and major organ tissues were harvested by surgery. For histopathological analysis, tissue samples were washed with PBS, fixed in 4% paraformaldehyde (PFA), paraffin-embedded, and sectioned into 7 μm thickness. For Western blot analysis, the tissue samples were dissociated by a tissue-tearor in RIPA buffer containing 1×protease and phosphatase inhibitors.
Figure 4 ZC-22 suppresses growth of breast cancer xenografts. Female NOD-SCID mice were injected subcutaneously with 2 × 10^6 of MDA-MB-231 cells and treated ip daily with 50 mg/kg of Olaparib (OLA) or LY2835219 (LY-2) alone or together (OLA + LY-2) or with ZC-22 alone starting on day 10 after injection of cells when tumors were 50–80 mm^3 in size. Tumor volumes were measured every 2–3 days. […] (B,C) Pictures of (B) and quantification of the size of (C) the MDA-MB-231 xenograft tumors at the end points. […] (E) Quantification of Ki67 (Left) and γH2A.X (Right)-positive cells in immunohistochemical staining of the xenograft tumor tissues. […]
Figure 6 ZC-22 sensitizes breast cancer cells to cisplatin treatment in vivo. […] Tumor volumes were measured every 2–3 days. […] (B,C) Pictures (B) and quantification of the size (C) of the MDA-MB-231 xenograft tumors at the end points. […] (E) Quantification of Ki67 (left) and γH2A.X (right)-positive cells in immunohistochemical staining of the xenograft tumor tissues. […]

## Cc1nc2c(F)cc(-c3nc(Nc4ccc(N5CCN(C(=O)c6cc(Cc7n[nH]c(=O)c8ccccc78)ccc6F)CC5)cn4)ncc3F)cc2n1C(C)C [ZC-22, 4-(4-fluoro-3-(4-(6-((5-fluoro-4-(4-fluoro-1-isopropyl-2-methyl-1H-benzo[d]imidazole-6-yl)pyrimidin-2-yl)amino)pyridin-3-yl)piperazine-1-carbonyl)benzyl)phthalazin-1(2H)-one]
1.5 mg/kg cisplatin or 50 mg/kg ZC-22 ip alone or together
  growth of the xenograft tumors: effectively inhibit growth of the xenograft tumors
50 mg/kg ip, Olaparib and LY2835219 alone or together, or ZC-22
  anti-tumor efficacy (tumor growth): even higher therapeutic efficacy than combined Olaparib and Abemaciclib therapy
